Source: US20190269129A1, “COMPOSITION CONTAINING 1,2-DIBROMO-2,4-DICYANOBUTANE (DBDCB) AND ZINC PYRITHIONE (ZPT)” (LANXESS Deutschland GmbH, priority 2014, published 2019)

Legend:
Assay type in all cases: cell-based
Conditions in all cases: 0.05 wt % biocide added
[1] = tested on: Molds: Acremonium strictum, Aspergillus niger and Geotrichum candidu; assay: Microbiological stress test, preservation of a polymer emulsion: molds
Excerpt: (§1) The preserving effect of an inventive composition comprising DBDCB and ZPT in a polymer emulsion (acrylate-based, pH=6.5) was investigated using a microbiological stress test. The microbiological stress test examines the susceptibility of water-based systems to microbial attack and the effect of preservatives. To this end, the preservatives are incorporated in defined concentrations into the water-based systems. […] Having knowledge of the microorganism populations prevalent in polymer emulsions and dispersions the experiment employed a mixture of the following microorganism types for testing: Molds: Acremonium strictum, Aspergillus niger and Geotrichum candidu.

[2] = tested on: Bacteria: Escherichia coli, Pseudomonas aeruginosa and Staphylococcus aureus; assay: Microbiological stress test, preservation of a polymer emulsion: bacteria
Excerpt: as §1, with “Bacteria: Escherichia coli, Pseudomonas aeruginosa” for “Molds: Acremonium strictum, Aspergillus niger”, “Staphylococcus aureus.” for “Geotrichum candidu.”

[3] = tested on: Yeasts: Candida albicans and Rhodotorula rubra; assay: Microbiological stress test, preservation of a polymer emulsion: yeasts
Excerpt: as §1, with “Yeasts: Candida albicans” for “Molds: Acremonium strictum, Aspergillus niger”, “Rhodotorula rubra.” for “Geotrichum candidu.”

[4] = week 1, polymer emulsion pH 6.5
[5] = week 2, polymer emulsion pH 6.5
[6] = week 3, polymer emulsion pH 6.5
[7] = week 4, polymer emulsion pH 6.5
[8] = week 5, polymer emulsion pH 6.5
[9] = week 6, polymer emulsion pH 6.5

SMILES: [O-][n+]1ccccc1[S-].[O-][n+]1ccccc1[S-].[Zn+2] [ZPT, zinc bis[2-pyridinethiolate]-N,N-dioxide]
- Activity of the biocides determined 1 week after germ addition, week 1 [1, 4]: 2 (markedly reduced microbe level is observed (10^3−10^1 bacteria/10^2−10^1 mold/yeast cells per g) (score of 2=good))
- Activity of the biocides determined 1 week after germ addition, week 2 [1, 5]: 2 (markedly reduced microbe level is observed (10^3−10^1 bacteria/10^2−10^1 mold/yeast cells per g) (score of 2=good))
- Activity of the biocides determined 1 week after germ addition, week 3 [1, 6]: 2 (markedly reduced microbe level is observed (10^3−10^1 bacteria/10^2−10^1 mold/yeast cells per g) (score of 2=good))
- Activity of the biocides determined 1 week after germ addition, week 4 [1, 7]: 2 (markedly reduced microbe level is observed (10^3−10^1 bacteria/10^2−10^1 mold/yeast cells per g) (score of 2=good))
- Activity of the biocides determined 1 week after germ addition, week 5 [1, 8]: 2 (markedly reduced microbe level is observed (10^3−10^1 bacteria/10^2−10^1 mold/yeast cells per g) (score of 2=good))
- Activity of the biocides determined 1 week after germ addition, week 6 [1, 9]: 2 (markedly reduced microbe level is observed (10^3−10^1 bacteria/10^2−10^1 mold/yeast cells per g) (score of 2=good))
- Activity of the biocides determined 1 week after germ addition, week 1 [2, 4]: 0 (no reduction or only a minor reduction of the microbe level is observed (residual level of at least 10^5 bacteria/10^4 mold/yeast cells per g) (score of 0=poor))
- Activity of the biocides determined 1 week after germ addition, week 2 [2, 5]: 0 (no reduction or only a minor reduction of the microbe level is observed (residual level of at least 10^5 bacteria/10^4 mold/yeast cells per g) (score of 0=poor))
- Activity of the biocides determined 1 week after germ addition, week 3 [2, 6]: 0 (no reduction or only a minor reduction of the microbe level is observed (residual level of at least 10^5 bacteria/10^4 mold/yeast cells per g) (score of 0=poor))
- Activity of the biocides determined 1 week after germ addition, week 4 [2, 7]: 0 (no reduction or only a minor reduction of the microbe level is observed (residual level of at least 10^5 bacteria/10^4 mold/yeast cells per g) (score of 0=poor))
- Activity of the biocides determined 1 week after germ addition, week 5 [2, 8]: 0 (no reduction or only a minor reduction of the microbe level is observed (residual level of at least 10^5 bacteria/10^4 mold/yeast cells per g) (score of 0=poor))
- Activity of the biocides determined 1 week after germ addition, week 6 [2, 9]: 0 (no reduction or only a minor reduction of the microbe level is observed (residual level of at least 10^5 bacteria/10^4 mold/yeast cells per g) (score of 0=poor))
- Activity of the biocides determined 1 week after germ addition, week 1 [3, 4]: 2 (markedly reduced microbe level is observed (10^3−10^1 bacteria/10^2−10^1 mold/yeast cells per g) (score of 2=good))
- Activity of the biocides determined 1 week after germ addition, week 2 [3, 5]: 2 (markedly reduced microbe level is observed (10^3−10^1 bacteria/10^2−10^1 mold/yeast cells per g) (score of 2=good))
- Activity of the biocides determined 1 week after germ addition, week 3 [3, 6]: 2 (markedly reduced microbe level is observed (10^3−10^1 bacteria/10^2−10^1 mold/yeast cells per g) (score of 2=good))
- Activity of the biocides determined 1 week after germ addition, week 4 [3, 7]: 2 (markedly reduced microbe level is observed (10^3−10^1 bacteria/10^2−10^1 mold/yeast cells per g) (score of 2=good))
- Activity of the biocides determined 1 week after germ addition, week 5 [3, 8]: 2 (markedly reduced microbe level is observed (10^3−10^1 bacteria/10^2−10^1 mold/yeast cells per g) (score of 2=good))
- Activity of the biocides determined 1 week after germ addition, week 6 [3, 9]: 2 (markedly reduced microbe level is observed (10^3−10^1 bacteria/10^2−10^1 mold/yeast cells per g) (score of 2=good))
